Test results: patent publication US9469615B2, “Quinoxalines and AZA-quinoxalines as CRTH2 receptor modulators” (Merck Sharp & Dohme Corp., priority 2010, dated 2016)

Biological target: T1, hCRTH2 (Homo sapiens, UniProt Q9Y5Y4)
T1 construct: expressed in transfected cells; host or cells: HEK (human embryonic kidney) cells expressing hCRTH2; membrane preparation
T1 sequence (Q9Y5Y4 1-395): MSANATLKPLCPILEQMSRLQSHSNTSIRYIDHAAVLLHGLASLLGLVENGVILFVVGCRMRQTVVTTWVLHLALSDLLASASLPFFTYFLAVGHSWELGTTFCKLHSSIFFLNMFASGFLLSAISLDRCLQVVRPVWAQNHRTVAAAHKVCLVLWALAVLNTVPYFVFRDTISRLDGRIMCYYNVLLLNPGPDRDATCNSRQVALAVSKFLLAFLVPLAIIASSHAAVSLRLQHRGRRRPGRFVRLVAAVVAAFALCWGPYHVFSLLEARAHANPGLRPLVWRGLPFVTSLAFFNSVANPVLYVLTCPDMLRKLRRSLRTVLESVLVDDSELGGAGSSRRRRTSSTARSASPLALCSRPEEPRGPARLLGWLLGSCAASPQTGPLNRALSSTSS
Assay: Radioligand binding assay ([3H]PGD2 competition, HEK-hCRTH2 membranes)
In short: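 Displacement of 3.0 nM [3H]PGD2 from human CRTH2 expressed in HEK membranes was measured at room temperature over 60 min. Unlabelled PGD2 at 10 μM gave non-specific binding.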

[1] = [3H]PGD2 binding, rated A-E (Table A)
[2] = [3H]PGD2 binding, values in text

Row | SMILES | Ki [1] | Ki [2] | Ki ([3H]PGD2 competition, Table B)
1 | C[C@H](NC(=O)c1ccc2nc(-c3ccccc3)c(CCCCC(=O)O)nc2c1)c1ccc(F)cc1 [compound 235, 7-[[[1(S)-(4-fluorophenyl)ethyl]amino]carbonyl]-3-phenyl-2-quinoxalinepentanoic acid] | 2.1 to 20 nM |  | 
2 | C[C@H](c1ccc(F)cc1)N(C)C(=O)c1ccc2nc(-c3ccccc3)c(CCCCC(=O)O)nc2c1 [compound 236, 7-[[[1(R)-(4-fluorophenyl)ethyl]methylamino]carbonyl]-3-phenyl-2-quinoxalinepentanoic acid] | 2.1 to 20 nM |  | 
3 | C[C@@H](c1ccc(F)cc1)N(C)C(=O)c1ccc2nc(-c3ccccc3)c(CCCCC(=O)O)nc2c1 [compound 237, 7-[[[1(S)-(4-fluorophenyl)ethyl]methylamino]carbonyl]-3-phenyl-2-quinoxalinepentanoic acid] | 2.1 to 20 nM |  | 
4 | C[C@H](c1ccc(Cl)cc1)N(C)C(=O)c1ccc2nc(-c3ccccc3)c(CCCCC(=O)O)nc2c1 [compound 238, 7-[[[1(R)-(4-chlorophenyl)ethyl]methylamino]carbonyl]-3-phenyl-2-quinoxalinepentanoic acid] | 2.1 to 20 nM |  | 
5 | C[C@@H](c1ccc(Cl)cc1)N(C)C(=O)c1ccc2nc(-c3ccccc3)c(CCCCC(=O)O)nc2c1 [compound 239, 7-[[[1(S)-(4-chlorophenyl)ethyl]methylamino]carbonyl]-3-phenyl-2-quinoxalinepentanoic acid] | 2.1 to 20 nM |  | 
6 | C[C@H](c1ccc(F)cc1)N(C)C(=O)c1ccc2nc(-c3ccc(F)cc3)c(CCCCC(=O)O)nc2c1 [compound 240, 3-(4-fluorophenyl)-7-[[[1(R)-(4-fluorophenyl)ethyl]methylamino]carbonyl]-2-quinoxalinepentanoic acid] | 2.1 to 20 nM |  | 
7 | C[C@@H](c1ccc(F)cc1)N(C)C(=O)c1ccc2nc(-c3ccc(F)cc3)c(CCCCC(=O)O)nc2c1 [compound 241, 3-(4-fluorophenyl)-7-[[[1(S)-(4-fluorophenyl)ethyl]methylamino]carbonyl]-2-quinoxalinepentanoic acid] | 2.1 to 20 nM |  | 
8 | C[C@H](c1ccc(Cl)cc1)N(C)C(=O)c1ccc2nc(-c3ccc(F)cc3)c(CCCCC(=O)O)nc2c1 [compound 242, 7-[[[1(R)-(4-chlorophenyl)ethyl]methylamino]carbonyl]-3-(4-fluorophenyl)-2-quinoxalinepentanoic acid] | 2.1 to 20 nM |  | 
9 | C[C@@H](c1ccc(Cl)cc1)N(C)C(=O)c1ccc2nc(-c3ccc(F)cc3)c(CCCCC(=O)O)nc2c1 [compound 243, 7-[[[1(S)-(4-chlorophenyl)ethyl]methylamino]carbonyl]-3-(4-fluorophenyl)-2-quinoxalinepentanoic acid] | 2.1 to 20 nM |  | 
10 | O=C(O)CCCCc1nc2cc(C(=O)N3CCC(c4ncccn4)CC3)ccc2nc1-c1ccc(F)cc1 [compound 244, 3-(4-fluorophenyl)-7-[[4-(2-pyrimidinyl)-1-piperidinyl]carbonyl]-2-quinoxalinepentanoic acid] | 2.1 to 20 nM |  | 
11 | O=C(O)CCCCc1nc2cc(C(=O)N3CCC(c4ncccn4)CC3)ccc2nc1-c1ccccc1 [compound 245, 3-phenyl-7-[[4-(2-pyrimidinyl)-1-piperidinyl]carbonyl]-2-quinoxalinepentanoic acid] | 2.1 to 20 nM |  | 
12 | N#Cc1ccc(C2CN(C(=O)c3ccc4nc(-c5ccc(F)cc5)c(CCCCC(=O)O)nc4c3)C2)cc1 [compound 246, 7-[[3-(4-cyanophenyl)-1-azetidinyl]carbonyl]-3-(4-fluorophenyl)-2-quinoxalinepentanoic acid] | 0.1 to 2 nM | 1.9 nM | 
13 | O=C(O)CCCCc1nc2cc(C(=O)N3CC(c4nc5ccccc5[nH]4)C3)ccc2nc1-c1ccccc1 [compound 247, 7-[[3-(1H-benzimidazol-2-yl)-1-azetidinyl]carbonyl]-3-phenyl-2-quinoxalinepentanoic acid] | 2.1 to 20 nM |  | 
14 | O=C(O)CCCCc1nc2cc(C(=O)N3CC(c4nc5ccccc5o4)C3)ccc2nc1-c1ccc(F)cc1 [compound 248, 7-[[3-(2-benzoxazolyl)-1-azetidinyl]carbonyl]-3-(4-fluorophenyl)-2-quinoxalinepentanoic acid] | 2.1 to 20 nM |  | 
15 | O=C(O)CCCCc1nc2cc(C(=O)N3CC(c4ccc(F)c(F)c4)C3)ccc2nc1-c1ccccc1 [compound 249, 7-[[3-(3,4-difluorophenyl)-1-azetidinyl]carbonyl]-3-phenyl-2-quinoxalinepentanoic acid] | 0.1 to 2 nM |  | 
16 | O=C(O)CCCCc1nc2cc(C(=O)N3CC(c4ccc(F)cc4)C3)ccc2nc1-c1ccccc1 [compound 250, 7-[[3-(4-fluorophenyl)-1-azetidinyl]carbonyl]-3-phenyl-2-quinoxalinepentanoic acid] | 0.1 to 2 nM |  | 

Row | SMILES | Ki [1] | Ki [2] | Ki ([3H]PGD2 competition, Table B)
17 | O=C(O)CCCCc1nc2cc(C(=O)N3CC(c4cccc(F)c4)C3)ccc2nc1-c1ccccc1 [compound 251, 7-[[3-(3-fluorophenyl)-1-azetidinyl]carbonyl]-3-phenyl-2-quinoxalinepentanoic acid] | 0.1 to 2 nM | 1 nM | 
18 | O=C(O)CCCCc1nc2cc(C(=O)N3CC(c4ccc(Cl)cc4)C3)ccc2nc1-c1ccccc1 [compound 252, 7-[[3-(4-chlorophenyl)-1-azetidinyl]carbonyl]-3-phenyl-2-quinoxalinepentanoic acid] | 0.1 to 2 nM |  | 
19 | O=C(O)CCCCc1nc2cc(C(=O)N3CC(c4cccc(Cl)c4)C3)ccc2nc1-c1ccccc1 [compound 253, 7-[[3-(3-chlorophenyl)-1-azetidinyl]carbonyl]-3-phenyl-2-quinoxalinepentanoic acid] | 0.1 to 2 nM |  | 
20 | O=C(O)CCCCc1nc2cc(C(=O)N[C@@H]3CCCc4cc(F)ccc43)ccc2nc1-c1ccccc1 [compound 254, 7-[[(6-fluoro-1,2,3,4-tetrahydro-1(R)-naphthalenyl)amino]carbonyl]-3-phenyl-2-quinoxalinepentanoic acid] | 0.1 to 2 nM |  | 
21 | O=C(O)CCCCc1nc2cc(C(=O)N[C@@H]3CCCc4cc(Cl)ccc43)ccc2nc1-c1ccccc1 [compound 255, 7-[[(6-chloro-1,2,3,4-tetrahydro-1(R)-naphthalenyl)amino)carbonyl]-3-phenyl-2-quinoxalinepentanoic acid] | 0.1 to 2 nM | 1.5 nM | 
22 | O=C(O)CCCCc1nc2cc(C(=O)N[C@@H]3CCCc4ccccc43)ccc2nc1-c1ccccc1 [compound 256, (R)-5-(3-phenyl-7-((1,2,3,4-tetrahydronaphthalen-1-yl)carbamoyl)quinoxalin-2-yl)pentanoic acid] |  |  | 0.1 to 2 nM
23 | C[C@H](NC(=O)c1ccc2nc(-c3ccc(Cl)cc3)c(CCCCC(=O)O)nc2c1)c1ccc(C#N)cc1 [compound 257] |  |  | 2.1 to 20 nM
24 | C[C@@H](CCc1nc2cc(C(=O)N[C@@H]3CCCc4ccccc43)ccc2nc1-c1ccc(F)cc1)CC(=O)O [compound 258, (S)-5-(3-(4-fluorophenyl)-7-(((R)-1,2,3,4-tetrahydronaphthalen-1-yl)carbamoyl)quinoxalin-2-yl)-3-methylpentanoic acid] |  |  | 2.1 to 20 nM
25 | O=C(O)Cc1cccc(-c2nc3cc(C(=O)N4CCN(c5ccccc5)CC4)ccc3nc2-c2ccc(Cl)cc2)c1 [compound 259, 2-(3-(3-(4-chlorophenyl)-7-(4-phenylpiperazine-1-carbonyl)quinoxalin-2-yl)phenyl)acetic acid] |  |  | 201 to 700 nM
26 | O=C(N[C@@H]1CCCc2cc(F)ccc21)c1ccc2nc(-c3ccc(F)cc3)c(CC[C@H]3C[C@@H]3C(=O)O)nc2c1 [compound 261, (1S,2S)-2-(2-(7-(((R)-6-fluoro-1,2,3,4-tetrahydronaphthalen-1-yl)carbamoyl)-3-(4-fluorophenyl)quinoxalin-2-yl)ethyl)cyclopropane-carboxylic acid] |  |  | 2.1 to 20 nM
27 | O=C(N[C@@H]1CCCc2ccccc21)c1ccc2nc(-c3ccc(F)cc3)c(CC[C@H]3C[C@@H]3C(=O)O)nc2c1 [compound 262, (1S,2S)-2-(2-(3-(4-fluorophenyl)-7-(((R)-1,2,3,4-tetrahydronaphthalen-1-yl)carbamoyl)quinoxalin-2-yl)ethyl)cyclopropanecarboxylic acid] |  |  | 2.1 to 20 nM
28 | O=C(N[C@@H]1CCCc2cc(F)ccc21)c1ccc2nc(-c3ccc(F)cc3)c(CC[C@@H]3C[C@H]3C(=O)O)nc2c1 [compound 263, (1R,2R)-2-(2-(7-(((R)-6-fluoro-1,2,3,4-tetrahydronaphthalen-l-yl)carbamoyl)-3-(4-fluorophenyl)quinoxalin-2-yl)ethyl)cyclopropanecarboxylic acid] |  |  | 2.1 to 20 nM
29 | O=C(N[C@@H]1CCCc2cc(F)ccc21)c1ccc2nc(-c3ccc(F)cc3)c(CCC3CC3C(=O)O)nc2c1 (stereo partly drawn) [compound 264, 2-(2-(7-(((R)-6-fluoro-1,2,3,4-tetrahydronaphthalen-l-yl)carbamoyl)-3-(4-fluorophenyl)quinoxalin-2-yl)ethyl)cyclopropanecarboxylic acid] |  | 15.4 nM | 2.1 to 20 nM
30 | C[C@@H]1CN(c2ccc(F)cc2)CCN1C(=O)c1ccc2nc(-c3ccccc3)c(CCCCC(=O)O)nc2c1 [compound 265, (R)-5-(7-(4-(4-fluorophenyl)-2-methylpiperazine-1-carbonyl)-3-phenylquinoxalin-2-yl)pentanoic acid] |  |  | 2.1 to 20 nM
31 | O=C(O)CCCCc1nc2cc(C(=O)NC3CC(=O)Nc4ccccc43)ccc2nc1-c1ccccc1 (centres unmarked) [compound 266, 5-(7-((2-oxo-1,2,3,4-tetrahydroquinolin-4-yl)carbamoyl)-3-phenylquinoxalin-2-yl)pentanoic acid] |  |  | 2.1 to 20 nM
